Measurements: patent US10442830B2, “Synthesis of monoethers of sugar comprising a long alkyl chain and uses thereof as a surfactant” (TEREOS STARCH & SWEETENERS BELGIUM, priority 2014, dated 2019)

Test: Surface tension of aqueous solutions (Du Noüy-Padday method, platinum rod probe)
Type: physicochemical
Details: for Minimum hydrotrope concentration (MHC) or critical micelle concentration (CMC) / surface tension of water (γsat): in water at 25° C.; for surface tension of water (γsat): saturation surface tension; for concentration necessary to lower the surface tension / surface tension reached at the stated concentration: water
Description: The term “surfactant” or “surface-active agent” denotes a compound that reduces surface tension when it is dissolved in water or in an aqueous medium, or that reduces the interfacial tension between two liquids, between a liquid and a solid or between a liquid and a gas. As a general rule, the surface-active properties of a compound may be measured by the plate method using a platinum rod as probe (Du Nouy-Padday method, as described in J F Padday, A R Pitt, R M Pashley, J. Chem. Soc. Faraday. Trans 1, 1975, 71, 1919-1931). The Du Nouy-Padday method is used for measuring the equilibrium of surface tension or of dynamic surface tension at the air/liquid interface.
Surface tension was measured at (25.0±0.1)° C. with a Krüss K100MK2 tensiometer using a platinum rod as probe. A total of 1.0 ml of water was added to the measuring vessel. When the surface tension is stable (standard deviation of the last five measurements of 0.2 mN/m), manual dilution is carried out with a concentrated solution of surfactant to its limit of solubility while maintaining constant volume.
In the present study, the general characteristics of the surfactants were evaluated by measuring the reduction in saturated surface tension (γsat) and the critical micelle concentration (CMC) of the mixture (3+4) previously obtained in water at 25° C. The surface-active properties were compared against those of the pure compounds.
The surface tension of aqueous solutions containing increasing concentrations of each of the compounds was measured by the Du Noüy-Padday method using a platinum rod as probe (method described in J. F. Padday, A. R. Pitt, R. M. Pashley, J. Chem. Soc. Faraday. Trans 1, 1975, 71, 1919-1931). The data are presented graphically in FIG. 1, showing analysis of the surface tension as a function of the concentration of the sorbitan ether derivatives ([…] (black diamonds), C12EthSorb (black lozenges), C5/C12EthSorb (black triangles)). The value of the critical micelle concentration (CMC) is shown with a small arrow for C5EthSorb.
The general characteristics of the surfactants were evaluated as in example 4 by measuring the reduction in saturated surface tension (γsat) and the critical micelle concentration (CMC) of the mixture (C5/C12 MeGlu) obtained previously in water at 25° C. The surface-active properties were compared with pure compounds.
The surface tension of aqueous solutions containing increasing concentrations of each of the compounds was measured by the plate method using a platinum rod as probe (Du Nouy-Padday method as described in J F Padday, A R Pitt, R M Pashley, J. Chem. Soc. Faraday. Trans 1, 1975, 71, 1919-1931). The data are shown in FIG. 2, showing analysis of the surface tension from the concentration of the ether derivatives of methyl glucoside (C5EthMeGlu (black star), C12EthMeGlu (black diamond), C5/C12EthMeGlu (black cross)).

[1] = ether derivatives of methyl glucoside

| Minimum hydrotrope concentration (MHC) or critical micelle concentration (CMC) (sorbitan ether derivatives) [mg/L] | surface tension of water (γsat) (sorbitan ether derivatives) [mN/m] | concentration necessary to lower the surface tension (sorbitan ethers, to lower the surface tension by 31 mN/m) [µg/mL] | surface tension reached at the stated concentration (sorbitan ethers) [mN/m] | Minimum hydrotrope concentration (MHC) or critical micelle concentration (CMC) [1] [mg/L] | surface tension of water (γsat) [1] [mN/m] | concentration necessary to lower the surface tension (methyl glucoside ethers) [µg/mL] | surface tension reached at the stated concentration (methyl glucoside ethers) [mN/m] | Substance |
| --- | --- | --- | --- | --- | --- | --- | --- | --- |
| 1779 | 32 | 1179 | 31 | – | – | – | – | pentyl sorbitan [Product C5EthSorb] |
| 30.2 | 31 | – | – | – | – | – | – | (6+5+3−)-dodecyl sorbitan [Product C12EthSorb] |
| – | – | – | – | 8199 | 32 | 8199 | 32 | pentyl α-D-methyl glucopyranoside [Product C5EthMeGlu] |
| – | – | – | – | 4.5 | 28 | – | – | (6+4)-O-dodecyl-α-D-methyl glucopyranoside [Product C12EthMeGlu] |
